The source of these data is PubChem BioAssay AID449750 (Broad Institute, 2010).

The source made the active and inactive calls. How the calls were made is not given here.

The nature of this test: non-covalent RecA intein splicing inhibitors, dose response, biochemical, cell-free, fluorescence, secondary screen (AID 449750).
In general, AC50 refers to the concentration at which the activity in the assay is half-maximal. As to `O=C1NC(c2ccc(-c3ccccc3[N+](=O)[O-])o2)C(C(=O)c2ccc(Cl)cc2)C(O)(C(F)(F)F)N1` (stereo not drawn), the AC50 is 17 µM. For `O=C(Oc1ccc(Br)cc1C(=S)N1CCCCC1)c1cc([N+](=O)[O-])cc([N+](=O)[O-])c1` the value was > 38 µM (inactive); for `CN(C)CCSc1nnc2[nH]c3ccccc3c2n1`, > 38 µM (inactive); for `CC(=O)c1cccc(-c2ccc3c(=O)[nH]c(Nc4ccccc4)cc3c2)c1`, 6.06 µM.

Regarding `Cc1cccc(S(=O)(=O)C(C#N)c2nc3ccccc3nc2N2CCCC2)c1` (stereo not drawn), the AC50 was > 38 µM (inactive). For `CCOC(=O)Cc1[nH]nc2c1C(c1cccc(OC)c1OC)C(C#N)=C(N)O2` (stereo not drawn) the value was 11.5 µM; for `O=C(CCCN1C(=O)/C(=C/c2ccccc2)SC1=S)Nc1ccc(O)cc1`, > 38 µM (inactive). For `Cc1ccccc1C(CC(=O)c1cccs1)C(C#N)C#N` (stereo not drawn) the value was 6.53 µM.

For `Cc1[nH][nH]c(=O)c1[C@@H](c1ccccc1[N+](=O)[O-])C(C#N)C#N`, the AC50 is > 38 µM (inactive).

As to `Oc1ccc(N=Cc2ccc(O)c(O)c2)cc1`, the AC50 is 17.6 µM. Then `CCOC(=O)c1c(CC(C)C)csc1NC(=O)CCl`, with 3.33 µM; and `COc1ccc(NC(=O)CSc2c3c(nc4cc(Cl)ccc24)CCCC3)cc1OC`, with 31.7 µM; and `Cc1ccc(S(=O)(=O)Oc2ccc(C(c3c(C)[nH][nH]c3=O)c3c(C)[nH][nH]c3=O)cc2)cc1`, with 2.22 µM.

As for `CC1=NN(c2ccc(N)cc2)C(=O)C1`, the AC50 is 3.44 µM. Then `C[C@@H]1CC=C[C@H]2[C@H]1C(=O)N(Cc1ccccc1)[C@H]2c1ccc(F)c(Br)c1`, with 17.9 µM; and `O=C(NCc1cccnc1)/C(=C/c1ccc(-c2ccc(Cl)cc2)o1)S(=O)(=O)c1ccccc1`, with 32.4 µM.

Take `O=S(=O)(Cc1ccccc1)c1cnc2ccccc2n1`: the AC50 was > 38 µM (inactive). Then `CCCSc1nnc(Sc2nnnn2-c2ccccc2)s1`, with 14.2 µM. For `CCC(CNc1cc(OC)cc2cccnc12)NC1CCCCC1` (stereo not drawn) the value was 6.86 µM.

In the case of `COC(=O)c1ccc(-c2ccc(C(c3c(C)[nH][nH]c3=O)c3c(C)[nH][nH]c3=O)o2)cc1`, the AC50 is 1.6 µM.

For `Cc1ccc(C(c2cc(Cl)c3cccnc3c2O)N2CCN(C)CC2)cc1` (stereo not drawn), the AC50 was 19.3 µM. For `CNC1=C(N(C(C)=O)c2ccc(Br)cc2)C(=O)c2ccccc2C1=O` the value was 2.43 µM; for `COc1cc(C2C(C#N)=C(N)Oc3n[nH]c(C)c32)ccc1OC(=O)c1ccccc1` (stereo not drawn), > 38 µM (inactive); for `COc1ccc(C2=NN(c3nc(C)cc(C)n3)C(=O)C2)cc1`, 5.75 µM.

On to `CCCc1ccc(/C=C2\C(=O)c3ccccc3C(O)=C2C(=O)OCC)cc1`, for which the half-maximal activity concentration (AC50) is 8.63 µM. Then `Cc1cc(-c2[nH]nc3c2C(c2ccsc2)C(C#N)=C(N)O3)c(C)s1` (stereo not drawn), with 13.6 µM; and `N#C[C@H]1[C@H](c2ccccc2)[C@](C#N)(C(=O)c2ccccc2)[C@@H]2C=Cc3ccccc3N21`, with > 38 µM (inactive). For `O=C(N/N=C/c1ccc(-c2ccccc2[N+](=O)[O-])o1)[C@H]1C[C@@H]1c1ccccc1` the value was 9.01 µM. Then `O=C(CNC(=O)c1ccccc1)N/N=C/c1ccc([N+](=O)[O-])o1`, with > 38 µM (inactive); and `COc1ccc(C2NC(c3ccc(OC)cc3OC)C(C)C(=O)C2C)c(OC)c1` (stereo not drawn), with > 38 µM (inactive).

Turning to `Cc1ccccc1N1C(=O)c2ccccc2C1Nc1cccnc1` (stereo not drawn), the AC50 was > 38 µM (inactive). For `CCOC(=O)c1cc(C)sc1NC(=O)CSC1=NCCS1` the value was 19.6 µM. Then `CCOc1ccccc1CNc1ccc(O)cc1`, with 37.6 µM; and `CC(C)c1nnc(NC(=O)c2nc(S(=O)(=O)Cc3ccccc3F)ncc2Cl)s1`, with > 38 µM (inactive); and `CCc1oc2ccccc2c1C(=O)c1cc(Br)c(O)c(Br)c1`, with 9.46 µM. Then `O=C(C1=C(c2ccccc2)C(=O)c2ccccc2C1=O)c1ccccc1`, with 3.45 µM; and `Nc1scc2c(C(=O)N/N=C/c3ccc(Cl)cc3)nn(-c3ccccc3)c(=O)c12`, with 28.1 µM. For `CC1=NNC(=O)C1C(c1ccccc1)C(C#N)C#N` (stereo not drawn), the AC50 is > 38 µM (inactive).

On to `Cc1sc(NC(=O)/C=C/C(=O)O)c(C(N)=O)c1-c1ccc(C(C)(C)C)cc1`, for which the AC50 is 11.9 µM. For `CCCC(=O)N(C1CC(C)C(C#N)(C#N)C1(C#N)C#N)N(C)C` (stereo not drawn) the value was > 38 µM (inactive); for `COc1cc(/C=C(\C#N)C(=O)Nc2ccc3c(c2)OCCO3)ccc1O`, > 38 µM (inactive). For `CCOc1ccc2c(c1)C(NC(C)=O)C(=O)N2CCN1CCOCC1` (stereo not drawn) the value was 34.2 µM; for `CCOC(=O)c1ccc(NC2=CC(=O)C(=O)c3ccccc32)cc1`, > 38 µM (inactive); for `CC(=O)Nc1cc(OC(=O)c2ccco2)cc(OC(=O)c2ccco2)c1`, 11.8 µM. Then `CC1C(=O)C(C)C(c2cc(Cl)ccc2O)NC1c1cc(Cl)ccc1O` (stereo not drawn), with 5.18 µM; and `CCOC(=O)c1c(NC(=O)CSc2nnc(-c3c[nH]c4ccccc34)n2CCOC)sc2c1CCCC2`, with > 38 µM (inactive); and `CCOC(=O)c1c(NC(C)=O)sc2c1CCC(C=NCCCN(CC)CC)=C2Sc1ccccc1`, with 0.311 µM. For the compound `Cc1[nH]nc2c1C(c1ccc(OC(=O)c3ccco3)cc1)C(C#N)=C(N)O2` (stereo not drawn), the AC50 was > 38 µM (inactive). For `Cc1nn(CCc2nn[nH]n2)c2nc(-c3ccc(C4CCCCC4)cc3)cc(C(F)(F)F)c12` the value was 24.6 µM; for `O=C(CCl)N1N=C(c2ccco2)CC1c1cccs1` (stereo not drawn), 6.09 µM. For `CCOc1ccc2c(c1)-c1c(ssc1=S)C(C)(C)N2` the value was > 38 µM (inactive); for `CC(=O)c1ccc(OC(=O)c2cccs2)cc1`, > 38 µM (inactive); for `CCCc1nn(C)c2c1C(c1ccncc1)C(C#N)=C(N)O2` (stereo not drawn), > 38 µM (inactive).

Turning to `O=C(NNC(=O)c1ccc([N+](=O)[O-])o1)c1ccccc1`, the AC50 is 33.6 µM. As for `O=C1C(Cl)=C(Nc2ccc(O)cc2)C(=O)c2ccccc21`, the AC50 was 2.7 µM.

For `O=C(Nc1ccccc1)C1=C(c2ccccc2)S(=O)(=O)CCS1(=O)=O`, the AC50 was > 38 µM (inactive). For `O=C(CN1C(=O)S/C(=C\C=C\c2ccccc2)C1=O)Nc1ccc(C(=O)O)cc1` the value was 29.6 µM. For `CC(C)c1nnc(NC(=O)c2nc(S(=O)(=O)Cc3ccc(F)cc3)ncc2Cl)s1` the value was > 38 µM (inactive); for `COC(=O)c1ccccc1OC(=O)c1ccc(Br)o1`, > 38 µM (inactive); for `COc1cc(Cc2nccc3cc(OC)c(OC)cc23)c(S(=O)(=O)O)cc1OC`, > 38 µM (inactive).

`CC1(C)CC(C(CCN(Cc2ccccc2)C(=O)c2ccco2)c2ccc(F)cc2)CCO1` (stereo not drawn): the AC50 is 5.14 µM.

On to `Cn1c(=O)c([N+](=O)[O-])c(-n2cnc3ccccc32)c2ccccc21`, for which the AC50 was > 38 µM (inactive).

Regarding `O=c1c(Cl)nc2cc(Cl)ccc2n1CCNc1ncc(C(F)(F)F)cc1Cl`, the AC50 is > 38 µM (inactive). For `O=C(NC1CCCC1)C(c1ccc(F)cc1)N(Cc1ccccc1Cl)C(=O)CCl` (stereo not drawn) the value was 0.802 µM. Then `CCOC(=O)c1ccc(CC2S/C(=C(\C#N)C(C)=O)NC2=O)cc1` (stereo not drawn), with > 38 µM (inactive); and `Cc1ccccc1Nc1cc2ccccc2c(=O)[nH]1`, with 1.54 µM. For `CN(C)C(=S)N=Nc1[nH]c2ccccc2c1O` the value was > 38 µM (inactive); for `CCOC(=O)CNc1nnc(SCC(=O)OCC)[nH]c1=O`, 10.2 µM. Turning to `COC(=O)/C(=C1/Oc2cc(C)oc(=O)c2S1)C(F)(F)F`, the AC50 is > 38 µM (inactive).

With `C/C(CC(=O)Nc1cc(C)ccn1)=N\NC(=O)c1ccc(C)cc1`, the AC50 is > 38 µM (inactive). Then `S=C1Cc2ccccc2N1`, with 3.46 µM; and `COc1ccc(-c2oc(NC(=O)CCl)c(C#N)c2-c2ccc(OC)cc2)cc1`, with 1.55 µM. `O=C1NCN(c2ccccc2)C12CCN(CCCC(c1ccc(F)cc1)c1ccc(F)cc1)CC2`: the AC50 is 16.5 µM. For `O=[N+]([O-])c1c(NCCCO)cc(SCc2ccco2)c2nonc12` the value was > 38 µM (inactive); for `CCOC(=O)c1c(NC(=O)/C=C/C(=O)O)sc(C)c1-c1ccc(C)c(C)c1`, 10.7 µM. For `CC(=O)N(C1=C(Cl)C(=O)c2ccccc2C1=O)C1CCCCC1` the value was 2.79 µM; for `O=c1[nH]c(N2CCOCC2)cc2ccccc12`, > 38 µM (inactive); for `Cn1c(SCC(=O)NCC2CCCO2)ncc(C(=O)Nc2ccccc2)c1=O` (stereo not drawn), > 38 µM (inactive). Then `O=C1c2ccccc2-c2onc3ccc(N4CCCC4)c1c23`, with > 38 µM (inactive); and `ClC(Cl)(Cl)c1nc2ccccc2n2nncc12`, with > 38 µM (inactive); and `Cc1cc(C(=O)c2ccccc2)c(NC(=O)CCl)s1`, with 7.09 µM. On to `O=C(O)c1ccc([N+](=O)[O-])c2c1C(=O)c1ccccc1C2=O`, for which the AC50 was > 38 µM (inactive). Then `COc1ccc(CC(=O)O/N=C(\N)Cc2cccc3ccccc23)cc1OC`, with > 38 µM (inactive); and `COc1ccc(OC)c(C2C(C#N)=C(N)Oc3c2c(C)nn3-c2cccc(Cl)c2)c1` (stereo not drawn), with 30 µM. Then `Cc1ccc(N2C(=O)C(Cl)=C(NCCO)C2=O)c(C)c1`, with > 38 µM (inactive); and `FC(F)(F)c1nnc(-c2ccccc2)nc1Sc1ccccc1`, with > 38 µM (inactive). Then `Nc1ccc(Nc2ccccc2N)cc1`, with 16 µM; and `CCCCCn1c(NC(=O)c2ccco2)c(S(=O)(=O)c2ccc(C)cc2)c2nc3ccccc3nc21`, with > 38 µM (inactive); and `Nc1ccc2c(c1)C(=O)C(=O)c1ccccc1-2`, with 17.6 µM.

For the compound `Cc1nc2ccccc2c2c1C(=O)N(C)C2=O`, the AC50 was > 38 µM (inactive). Take `O=C(CSc1nc2ccccc2nc1SCC(=O)N1CCOCC1)N1CCOCC1`: the AC50 is > 38 µM (inactive). For `COc1ccc(-c2nnc(Sc3nc4ccccc4o3)c3ccccc23)cc1` the value was 18.8 µM; for `COc1ccc(S(=O)(=O)Nc2ccc(O)c3ccccc23)cc1`, 0.296 µM.
